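A five-concentration, 48-hour dose response in 96-well plates underlies each endpoint, interpolated linearly between surrounding concentrations. TGI marks complete inhibition of growth.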
Experiments:
Experiment in all cases: NCI tumour cell line growth inhibition, 48 h
OVCAR-5 ovarian = test system: OVCAR-5 ovarian
SK-MEL-5 melanoma = test system: SK-MEL-5 melanoma
PC-3 prostate = test system: PC-3 prostate
MDA-N = test system: MDA-N
IGROV1 ovarian = test system: IGROV1 ovarian
MDA-MB-231 breast = test system: MDA-MB-231 breast
RPMI-8226 leukemia = test system: RPMI-8226 leukemia
MDA-MB-435 = test system: MDA-MB-435
HCC-2998 colon = test system: HCC-2998 colon
NCI-H522 lung = test system: NCI-H522 lung
NCI-H23 lung = test system: NCI-H23 lung
786-0 renal = test system: 786-0 renal
SR leukemia = test system: SR leukemia
SK-OV-3 ovarian = test system: SK-OV-3 ovarian
HCT-15 colon = test system: HCT-15 colon
HT29 colon = test system: HT29 colon
UO-31 renal = test system: UO-31 renal
HOP-92 NSCLC = test system: HOP-92 NSCLC
UACC-257 melanoma = test system: UACC-257 melanoma
RXF 393 renal = test system: RXF 393 renal
SF-539 CNS = test system: SF-539 CNS
TK-10 renal = test system: TK-10 renal
OVCAR-8 ovarian = test system: OVCAR-8 ovarian
HS 578T breast = test system: HS 578T breast
SNB-75 CNS = test system: SNB-75 CNS
A549 NSCLC = test system: A549 NSCLC
NCI-H226 lung = test system: NCI-H226 lung
KM12 colon = test system: KM12 colon
CAKI-1 renal = test system: CAKI-1 renal
SW-620 colon = test system: SW-620 colon
SN12C renal = test system: SN12C renal
MOLT-4 leukemia = test system: MOLT-4 leukemia
A498 renal = test system: A498 renal
MALME-3M melanoma = test system: MALME-3M melanoma
HOP-62 NSCLC = test system: HOP-62 NSCLC
SK-MEL-2 melanoma = test system: SK-MEL-2 melanoma
SNB-19 CNS = test system: SNB-19 CNS
HCT-116 colon = test system: HCT-116 colon
DU-145 prostate = test system: DU-145 prostate
ACHN renal = test system: ACHN renal
T-47D breast = test system: T-47D breast
EKVX NSCLC = test system: EKVX NSCLC
LOX IMVI melanoma = test system: LOX IMVI melanoma
NCI-H460 lung = test system: NCI-H460 lung
MCF7 breast = test system: MCF7 breast
NCI/ADR-RES ovarian = test system: NCI/ADR-RES ovarian
OVCAR-4 ovarian = test system: OVCAR-4 ovarian
BT-549 breast = test system: BT-549 breast
UACC-62 melanoma = test system: UACC-62 melanoma
K-562 leukemia = test system: K-562 leukemia
SF-295 CNS = test system: SF-295 CNS
U251 CNS = test system: U251 CNS
COLO 205 colon = test system: COLO 205 colon
SF-268 CNS = test system: SF-268 CNS
CCRF-CEM leukemia = test system: CCRF-CEM leukemia

Measured: TGI

CC(C)OC(=O)[C@@H]1OC(C)(C)O[C@H]1C(=O)OC(C)C
> 100 µM: all assays above

Reference: PubChem BioAssay (NCI)
